Assay results taken from the supplement of paper PMC4954754.
Several values for one entry are separate records, joined by “and”; a condition that tells them apart may be missing. Equal values may be shown once. ± gives the uncertainty stated by the source.

Experiments:
Conditions in all cases: 18 h
HEK293T-Rex ERSE-FLuc [1] = assay: EC50 for ERSE-FLuc reporter activation
Experimental: (§1)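 Dose-response of hit compounds in HEK293T-Rex cells stably expressing ERSE-FLuc or XBP1-RLuc reporters, 18 hr treatment, 1536-well; luminescence normalised to 500 nM thapsigargin (100%) and DMSO (0%), fitted to give EC50 (M) and maximal activation; '>' marks EC50 above the top tested dose (~17 µM).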

HEK293T-Rex XBP1-RLuc [2] = assay: EC50 for XBP1-RLuc reporter activation
Experimental: as §1

HEK293T-Rex ERSE-FLuc [3] = assay: maximal ERSE-FLuc activation from dose-response fit, relative to thapsigargin (% of thapsigargin); higher = stronger activation
Experimental: as §1

HEK293T-Rex XBP1-RLuc [4] = assay: maximal XBP1-RLuc activation from dose-response fit, relative to thapsigargin (% of thapsigargin); higher = stronger activation
Experimental: as §1

Row | SMILES | EC50 for ERSE-FLuc reporter activation (HEK293T-Rex ERSE-FLuc [1]) | EC50 for XBP1-RLuc reporter activation (HEK293T-Rex XBP1-RLuc [2]) | maximal ERSE-FLuc activation (HEK293T-Rex ERSE-FLuc [3]) | maximal XBP1-RLuc activation (HEK293T-Rex XBP1-RLuc [4])
1 | Cc1ccc(O)c(NC(=O)c2cc(-c3ccc(O)cc3)on2)c1 | 9.05 µM | > 16.9 µM | 58.9 ± 2.1 | 30.8 ± 5.7
2 | COc1ccc(-c2cc(C(=O)Nc3cc(C)ccc3O)on2)cc1OC | > 16.9 µM | > 16.9 µM | 29.1 ± 5.3 | 9.55 ± 5.6
3 | O=c1[nH]c(/C=C2\C=Nc3ccccc32)c(O)n1-c1cccc(Cl)c1 | 2.5 µM | 2.18 µM | 67.9 ± 1 | 74.9 ± 7.7
4 | O=C(N/N=C/c1ccc(O)c(O)c1)c1cccc(Cl)c1 | 13.6 µM | > 16.9 µM | 69.2 ± 4.9 | 29.3 ± 2.4
5 | Cc1ccc(O)c(NC(=O)c2cc(C(C)C)on2)c1 | > 16.9 µM | > 16.9 µM | 39.9 ± 7.2 | 14.4 ± 1.7
6 | Cc1ccc2nc(/C(C#N)=C/c3ccc(O)cc3)[nH]c2c1 | > 16.9 µM | > 16.9 µM | 35.3 ± 5.6 | 21.3 ± 3.4
7 | COc1ccc(CCNC(=O)c2cccc(-c3ccc(N4CCOCC4)nc3)c2)cc1 | > 17 µM | > 17 µM | 15.9 ± 4.6 | 2.04 ± 0.93
8 | O=C(Nc1ccc2nc(NC(=O)C3CCCCC3)sc2c1)C1CCCCC1 | > 10.2 µM | > 10.2 µM | 13.9 ± 2.4 | 5.73 ± 2.7
9 | Nc1ccc2nc(-c3ccc(Cl)cc3)[nH]c2c1 | > 5.63 µM | > 16.9 µM | 68.5 ± 6.7 | 35.3 ± 12
10 | COc1ccc(/C=C/c2ccc3cccc(OC(C)=O)c3n2)cc1OC(C)=O | > 16.9 µM | > 16.9 µM | 25.7 ± 5.6 | 15 ± 2.1
11 | O=[N+]([O-])c1ccccc1NC(=S)N/N=C/c1ccc(O)c(O)c1 | > 18.3 µM | > 18.3 µM | 21.3 ± 3.4 | 28.2 ± 2.5
12 | O=C(NCCCn1ccnc1)c1cc(-c2cccs2)on1 | 9.58 µM | > 16.9 µM | 89.1 ± 3.8 | 12.1 ± 0.83
13 | COc1ccc(N(C(=O)c2ccccc2)S(=O)(=O)c2cc(OC)ccc2OC)cc1 | 6.69 µM | 5.82 µM | 125 ± 14 | 185 ± 8.3
14 | C/C=C(/C)C(=O)O[C@H]1C(C)=C2[C@H]([C@@H]1OC(=O)CCCCCCC)[C@@](C)(OC(C)=O)C[C@H](OC(=O)CCC)[C@@]1(O)[C@H]2OC(=O)[C@@]1(C)O | 0.07 µM and 0.0669 µM | 0.11 µM and 0.146 µM | 100 and 87.8 | 127 and 103
15 | O=C(NC(c1ccccc1)c1ccccc1)c1csc(-c2cnccn2)n1 | > 16.9 µM | > 16.9 µM | 34.2 ± 3.6 | 43.4 ± 9.4
16 | CN(C)c1ccc(-c2nc3ccc(N)cc3[nH]2)cc1 | > 15.6 µM | > 15.6 µM | 42.7 ± 3.8 | 32 ± 6
17 | OCCNc1nc(Nc2ccc(Cl)c(Cl)c2)nc2ccccc12 | 4.13 µM | 4.98 µM | 144 ± 47 | 73.7 ± 9
18 | N#C/C(=C(/O)c1cc(-c2ccccc2)nc2ccccc12)c1nc2ccccc2[nH]1 | > 15.9 µM | > 15.9 µM | 24.8 ± 8.7 | 17.9 ± 1.4
19 | COc1cccc(C(=O)Nc2sc3c(c2C#N)CC(C)CC3)c1 (stereo unspecified) | > 16.6 µM | > 16.6 µM | 23.5 ± 8 | 2.09 ± 1.1
20 | COc1ccc(/C=C(\C#N)c2nc(-c3ccco3)cs2)cc1O | > 16.7 µM | > 16.7 µM | 32.9 ± 2.9 | 14.5 ± 4.2
21 | CC(=O)c1cccc(Nc2nc(-c3ccc(O)c(O)c3)cs2)c1 | 9.07 µM | 13.5 µM | 87.3 ± 28 | 62.6 ± 15
22 | CCCCNC(=O)c1cc(-c2ccc(F)cc2)on1 | 12.2 µM | > 16.9 µM | 68.7 ± 8.5 | 9.22 ± 4.7

Row | SMILES | EC50 for ERSE-FLuc reporter activation (HEK293T-Rex ERSE-FLuc [1]) | EC50 for XBP1-RLuc reporter activation (HEK293T-Rex XBP1-RLuc [2]) | maximal ERSE-FLuc activation (HEK293T-Rex ERSE-FLuc [3]) | maximal XBP1-RLuc activation (HEK293T-Rex XBP1-RLuc [4])
23 | Cc1ccc(O)c(N=CC2=C(O)c3ccccc3C2=O)c1 | 3.75 µM | > 16.9 µM | 74.8 ± 16 | 35.5 ± 4.2
24 | O=C(NC1CCCC1)c1cc(-c2cccs2)on1 | 13.4 µM | > 16.9 µM | 57.6 ± 6.2 | 11.9 ± 3.2
25 | Nc1ccc2sc(-c3cc(Cl)c(N)c(Cl)c3)nc2c1 | > 16.9 µM | > 16.9 µM | 22 ± 6.1 | 14.9 ± 1.8
26 | Cc1ccc(O)c(NC(=O)CSc2n[nH]c(C)c2[N+](=O)[O-])c1 | 5.79 µM | > 16.9 µM | 98.8 ± 16 | 37.4 ± 7.3
27 | Cc1ccc(O)c(-c2cc(C(F)(F)C(F)F)no2)c1 | 7.56 µM | > 16.7 µM | 79.8 ± 24 | 23.6 ± 5.9
28 | O=C(N/N=C\C(Cl)=C\c1ccccc1)c1n[nH]c2c1CCCC2 | > 16.9 µM | > 16.9 µM | 19.7 ± 5.1 | 3.51 ± 3.7
29 | N#Cc1c(NC(=O)c2ccc(Br)cc2)sc2c1CCCC2 | > 12.7 µM | > 12.7 µM | 17.3 ± 2.2 | 1.87 ± 3.4
30 | COc1cccc(C2=NOC(C(=O)Nc3cc(C)ccc3O)C2)c1 (stereo unspecified) | 7.27 µM | > 16.9 µM | 92.8 ± 22 | 35.1 ± 3
31 | Oc1ccccc1/C=N\Nc1nc2ccccc2o1 | > 17.3 µM | > 17.3 µM | 12.4 ± 3.9 | 19.8 ± 1.3
32 | COc1ccccc1-c1nnc(Nc2nc3c(OC)cccc3s2)o1 | > 16.9 µM | > 16.9 µM | 32.7 ± 3 | 12.5 ± 1
33 | CCOC(=O)c1sc(NC(=O)c2cccc3ccccc23)nc1C | > 16.9 µM | > 16.9 µM | 25.3 ± 5.7 | 3.29 ± 3.4
34 | CCCc1cc(C(=O)Nc2cc(C)ccc2O)no1 | 2.84 µM | > 16.9 µM | 116 ± 9.5 | 30 ± 2.2
35 | O=C(Nc1ccccc1O)c1ccc(C(=O)c2ccccc2)cc1 | 7.47 µM | > 16.8 µM | 103 ± 3.3 | 15.1 ± 5.4
36 | COc1cccc(/C=N/NC(=O)c2ccc(NC(=O)c3ccc(C)cc3)cc2)c1O | > 16.9 µM | > 16.9 µM | 6.5 ± 1.7 | 1.01 ± 1.2
37 | COc1cccc(C(=O)Nc2nc3ccc(C)cc3s2)c1 | > 20.6 µM | > 20.6 µM | 31.7 ± 6.6 | 10.2 ± 2.3
38 | O=c1/c(=C/c2ccc(O)c(O)c2)sc2nc3ccccc3n12 | 6.02 µM | > 16.9 µM | 59.2 ± 3.9 | 43.9 ± 5.4
39 | Cc1ccc(O)c(-c2cc(-c3ccc(F)cc3)n[nH]2)c1 | 10.5 µM | > 19 µM | 71.4 ± 16 | 17.2 ± 4
40 | CCCNC(=O)c1ccc2nc(-c3ccc4[nH]ccc4c3)sc2c1 | > 17.4 µM | > 17.4 µM | 13.9 ± 6.1 | 2.49 ± 1.2
41 | COc1ccccc1-c1cc(C(=O)Nc2cc(C)ccc2O)no1 | > 16.9 µM | > 16.9 µM | 25.7 ± 7.9 | 18 ± 2.5
42 | O=C(/C=C/c1ccco1)Nc1ccc(Br)cc1Cl | > 16.9 µM | > 16.9 µM | 23.5 ± 2.5 | 4.5 ± 6.9
43 | Cc1ccc(O)c(-c2cc(-c3cccs3)[nH]n2)c1 | 8.75 µM | > 18.9 µM | 131 ± 8.8 | 27.5 ± 2.1
44 | N#Cc1ccc(-c2cccs2)nc1SCc1ccccn1 | > 16.4 µM | > 16.4 µM | 28.6 ± 1.8 | 5.22 ± 2.9
